Data on 6 compounds can be found in US6815451B2, “1,2,3,4-Tetrahydroisoquinolines derivatives as urotensin II receptor antagonists” (Actelion Pharmaceuticals Ltd., priority 2001, dated 2004).

Assay [1] deals with T1, urotensin II receptor on TE-671 rhabdomyosarcoma cells (Homo sapiens, UniProt Q9UKP6).
T1 construct: host or cells: TE-671 rhabdomyosarcoma cells
T1 sequence (Q9UKP6 1-389): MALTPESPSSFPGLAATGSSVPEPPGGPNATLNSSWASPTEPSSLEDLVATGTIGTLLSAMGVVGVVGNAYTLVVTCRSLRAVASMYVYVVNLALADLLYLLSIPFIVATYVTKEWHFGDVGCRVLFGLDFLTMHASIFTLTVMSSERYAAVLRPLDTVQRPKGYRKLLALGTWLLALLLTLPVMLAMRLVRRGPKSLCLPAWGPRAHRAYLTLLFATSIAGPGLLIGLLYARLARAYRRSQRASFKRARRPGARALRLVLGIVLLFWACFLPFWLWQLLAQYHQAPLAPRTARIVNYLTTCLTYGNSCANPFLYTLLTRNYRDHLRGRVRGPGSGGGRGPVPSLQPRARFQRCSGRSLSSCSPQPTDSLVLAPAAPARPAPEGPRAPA
Briefly: Inhibition of human [125I]-urotensin II binding to a rhabdomyosarcoma cell line (whole cell binding). The note with it: TE-671 whole cells, 20 pM human [125I]urotensin II, 4 h at 20° C. Here is the method:
1) Inhibition of Human [125I]-urotensin II Binding to a Rhabdomyosarcoma Cell Line
Whole cell binding of human [^125I]-urotensin II is performed using human-derived TE-671 rhabdomyosarcoma cells (Deutsche Sammlung von Mikroorganismen und Zellkulturen, cell line #ACC-263), by methods adapted from a whole cell endothelin binding assay (Breu V et al., In vitro characterization of Ro-46-2005, a novel synthetic non-peptide antagonist of ETA and ETB receptors. FEBS Lett. 1993, 334, 210-214).
The assay is performed in 250 μL Dubecco's modified eagle medium, pH 7.4 (GIBCO BRL, CatNo 31885-023), including 25 mM HEPES (Fluka, CatNo 05473), 1.0% DMSO (Fluka, CatNo 41644) and 0.5% (w/v) BSA Fraction V (Fluka, CatNo 05473) in polypropylene microtiter plates (Nunc, CatNo 442587). 300,000 suspended cells are incubated with gentle shaking for 4 h at 20° C. with 20 pM human [^125I]Urotensin II (Anawa Trading SA, Wangen, Switzerland, 2130 Ci/mmol) and increasing concentrations of unlabeled antagonist. Minimum and maximum binding are derived from samples with and without 100 nM unlabelled U-II, respectively. After the 4 h incubation period, the cells are filtered onto GF/C filter plates (Packard, CatNo 6005174). The filter plates are dried, and then 50 μL scintillation cocktail (Packard, MicroScint 20, CatNo 6013621) is added to each well. The filter plates are counted in a microplate counter (Packard Bioscience, TopCount NXT).
All test compounds are dissolved and diluted in 100% DMSO. A […] dilution into assay buffer is performed prior to addition to the assay. […] Specific binding is the difference between maximum binding and minimum binding, as described above.

In a further assay the test system is isolated rat aortic arch. Particulars: for pD2′ (functional inhibitory potency): Wistar rat aortic arch rings, 20 min incubation with test compound before cumulative doses of human urotensin II. As for the experimental part: 2) Inhibition of Human Urotensin II-Induced Contractions of Isolated Rat Aortic Arch Adult Wistar rats are anesthetized (CO2 inhalation) and exsanguinated. The aortic arch is excised, dissected and cut in 3 rings of 3 mm, ring #1 being the more proximal and ring #3 being the more distal. Each ring is suspended in a 10 mL isolated organ bath filled with Krebs-Henseleit solution (in mM; NaCl 115, KCl 4.7, MgSO4 1.2, KH2PO4 1.5, NaHCO3 25, CaCl2 2.5, glucose 10; pH 7.4) kept at 37° C. and gassed with 95% O2 and 5% CO2. The rings are connected to force transducers and isometric tension is recorded (EMKA Technologies SA, Paris, France). The rings are stretched to a resting tension of 3 g. […] The functional inhibitory potency of the test compound is assessed by calculating the pD2′ according to the formula: pD2′=Log (CR-1)-Log [B], where CR is the ratio of the maximal effect without/with antagonist and [B] the concentration of the antagonist.

Broadly, the IC50 is the concentration that inhibits the measured activity by half. `COc1cc2c(cc1OC)C(CCc1cc(F)ccc1F)N(CCNC(=O)Nc1cc(C)nc3ccccc13)CC2` (stereo not shown) [Example 20, 1-(2-{1-[2-(2,5-Difluoro-phenyl)-ethyl]-6,7-dimethoxy-3,4-dihydro-1H-isoquinolin-2-yl}-ethyl)-3-(2-methyl-quinolin-4-yl)-urea] registered an IC50 in assay [1] of 67 nM. Still for that read-out and setting: under `COc1ccc(CCC2c3cc(OC)c(OC)cc3CCN2CCNC(=O)Nc2cc(C)nc3ccccc23)cc1OC` (stereo not shown) [Example 22, 1-(2-{1-[2-(3,4-Dimethoxy-phenyl)-ethyl]-6,7-dimethoxy-3,4-dihydro-1H-isoquinolin-2-yl}-ethyl)-3-(2-methyl-quinolin-4-yl)-urea] stands 63 nM. `COc1cc2c(cc1OC)C(CCc1ccccc1)N(CCNC(=O)Nc1cc(C)nc3ccccc13)CC2` (stereo not shown) [Example 29, 1-[2-(6,7-Dimethoxy-1-phenethyl-3,4-dihydro-1H-isoquinolin-2-yl)-ethyl]-3-(2-methyl-quinolin-4-yl)-urea] gave an IC50 in assay [1] of 125 nM. Besides, the “pD2′ (functional inhibitory potency)” value in the assay on isolated rat aortic arch is reported as 5.23.

As to `COc1cc2c(c(OC)c1)C(Cc1ccc(OC)c(OC)c1)N(CCNC(=O)Nc1cc(C)nc3ccccc13)CC2` (stereo not shown) [Example 58, 1-{2-[1-(3,4-Dimethoxy-benzyl)-6,8-dimethoxy-3,4-dihydro-1H-isoquinolin-2-yl]-ethyl}-3-(2-methyl-quinolin-4-yl)-urea], the IC50 in assay [1] turned out to be 550 nM. As for `COc1ccc(CC2c3c(OC)ccc(OC)c3CCN2CCNC(=O)Nc2ccnc3ccccc23)cc1OC` (stereo not shown) [Example 93, 1-{2-[1-(3,4-Dimethoxy-benzyl)-5,8-dimethoxy-3,4-dihydro-1H-isoquinolin-2-yl]-ethyl}-3-quinolin-4-yl-urea], the “pD2′ (functional inhibitory potency)” value in the assay with isolated rat aortic arch amounted to 5.45.

Usually EC50 stands for the concentration that produces a half-maximal response. A low value points to a more potent agent. The compound `CC(C)[C@H](NC(=O)[C@@H]1CSSC[C@H](NC(=O)[C@H](CC(=O)O)NC(=O)[C@@H]2CCCN2C(=O)[C@@H](NC(=O)[C@@H](N)CCC(=O)O)[C@@H](C)O)C(=O)N[C@@H](Cc2ccccc2)C(=O)N[C@@H](Cc2c[nH]c3ccccc23)C(=O)N[C@@H](CCCCN)C(=O)N[C@@H](Cc2ccc(O)cc2)C(=O)N1)C(=O)O` [human U-II, reference compound] came in with an EC50 in the assay on isolated rat aortic arch of 1.09 ± 0.1 nM.
